Like-named read-outs stand apart in the source and are kept apart here.
Columns and labels:
[1] = molecular target: D2HGlo (Variant 2, SEQ ID NO: 4; Variant 2 truncated DhdR SEQ ID NO: 2, two residues removed from each terminus, between ECFP and cpVenus173) (Achromobacter denitrificans, UniProt A0ABZ3FXY3); format: binding, Achromobacter denitrificans NBRC 15125; conditions: concentrations up to 100 μM
2-HG = conditions: newly diagnosed and advanced cancer; cited from earlier work
[2] = system: IDH1 wildtype U87MG cells; assay: D-2-HG concentration in cell culture supernatant measured with purified D2HGlo, wildtype cells; format: cell-based, human
Procedure: (§1) Statistical analysis was performed using a one-way ANOVA test with post hoc Tukey (**, P<0.01; *, P<0.05). […] Statistical analysis was performed using a one-way ANOVA test with post hoc Tukey (*, P<0.05);
Both cell lines were left untreated or exposed to AG-120 (3 μM) for 48 hours prior to measurements. (B) Titration of purified D2HGlo with increasing concentrations of D-2-HG (100 nM-1 mM) spiked into human serum. […] (D) Titration of purified D2HGlo with increasing concentrations of D-2-HG (100 nM-1 mM) spiked into human urine. […] (F) Titration of purified D2HGlo with increasing concentrations of D-2-HG (100 nM-1 mM) spiked into aCSF.
Cell Culture Supernatant: U87MG IDH1 wildtype and mutant cells were plated at 60% confluence in 6-well plates. For some experiments, AG-120 in DMSO (3 μM), Glutaminase inhibitor (1 μM), or 2-DG (10 mM) was added to the cell culture media before plating the cells. For all conditions and cell lines, the cell culture supernatant was collected after 48 hours of incubation at 37° C. 10 μL of cell culture media was mixed with 90 μL of purified D2HGlo (5 μM), and the FRET ratios were collected. D-2-HG levels were estimated by using the titration curve as a calibration curve and converting the FRET ratios of unknowns into concentrations. Biological Fluids: Urine and serum were collected from three healthy donors while aCSF was purchased (Tocris Bioscience).

[3] = system: IDH1 wildtype U87MG cells; assay: Live-cell D2HGlo FRET ratio after inhibitor treatment, wildtype cells; format: cell-based, human
Procedure: (A) Left: Representative image of a wild-type IDH1 U87MG cell expressing Cyto-D2HGlo. Scale bar is 25 μm. […] (B) Left: Representative image of a wild-type IDH1 U87 clel cell expressing Nuc-D2HGlo. Scale bar is 25 μm. […] (C) Left: Representative image of a wild-type IDH1 U87 cell expressing Mito-D2HGlo. Scale bar is 25 μm.
as §1
Fluorescence Live-Cell Imaging.

[4] = system: IDH1 wildtype U87MG cells; assay: FRET imaging of D2HGlo in IDH1 wildtype U87MG cells; format: cell-based, human; conditions: Compound 968 1 μM, approx. 5.5 minutes
Procedure: . […] . This evidence further supports the specificity of D2HGlo to endogenous D-2-HG in situ. […] . […] .
The inventors utilized the glutaminase C inhibitor Compound 968 and 2-Deoxy-D-glucose (2-DG), an inhibitor of glycolysis. […] . Cell Culture and Transfection. […] Cells were transfected 24 hours after plating with 1.0 μg D2HGlo constructs and 3.0 μL Trans-IT®-LT1 transfection reagent (Mirus Bio, Madison, WI). The cells were allowed to express for 48 hours before imaging.
Fluorescence Live-Cell Imaging. […] The standard imaging parametersD2HGlo sensors were: 457 excited at 458 nm laser line and 482 nm and 531 nm and the fluorescent signal was collected using a BA 480-495 emission filter (ECFP) and a BA 535-565 emission filter (FRET). The FRET ratio was determined by dividing the FRET signal by the ECFP signal. […] . The maximum FRET ratio was determined for the entire time-course and normalized to the baseline FRET ratio. […] A region of interest was drawn on each cell, and the average FRET ratio within each ROI was determined. In some sets of experiments, cells were treated with AG-120 (3 μM) for 48 hours prior to FRET ratio collection. Alternatively, glutaminase inhibitor (1 μM), or 2-DG (10 mM) were added to imaging wells after collecting baseline FRET values for 30 seconds.

[5] = several freeze-thaw cycles or exposure to excess heat; cited from earlier work

O=C(O)CC(O)C(=O)O (racemic) [Malate, sodium hydrogen DL-malate]
response of D2HGlo (FRET ratio) to metabolite [1]: does not respond

N#Cc1ccnc(N2C(=O)CC[C@H]2C(=O)N(c2cncc(F)c2)[C@H](C(=O)NC2CC(F)(F)C2)c2ccccc2Cl)c1 [AG-120]
effect on 2-HG levels in patients (2-HG): reduction of 2-HG to levels similar to those seen in healthy populations
D-2-HG concentration in supernatant ([2]; AG-120 3 μM for 48 hours): 2.79 ± 0.41 µM
effect on D-2-HG levels ([3]; AG-120 3 μM for 48 hours): had no effect on D-2-HG levels

O=C(O)CC(O)(CC(=O)O)C(=O)O [Citrate]
response of D2HGlo (FRET ratio) to metabolite [1]: does not respond

CN(C)c1ccc(C2Nc3ccc4ccccc4c3C3=C2C(=O)CC(C)(C)C3)cc1Br (stereo not shown) [Compound 968]
acute change of FRET ratio (Cyto-D2HGlo) [4]: did not elicit any changes in FRET ratio
D-2-HG accumulation in supernatant ([2]; Compound 968 1 μM for 48 hours): nor did it affect D-2-HG accumulation in cell culture supernatants

N[C@@H](CCC(=O)O)C(=O)O [Glutamate, L-glutamic acid]
response of D2HGlo (FRET ratio) to metabolite [1]: does not respond
response of D2HGlo (FRET ratio) to metabolite ([1]; listed as glutamate): did not respond

C[C@H](O)C(=O)O [Lactate, sodium L-lactate]
response of D2HGlo (FRET ratio) to metabolite [1]: does not respond
response of D2HGlo (FRET ratio) to metabolite ([1]; listed as lactate): did not respond

O=C(O)CC(=O)C(=O)O [Oxaloacetate, Oxaloacetic acid]
response of D2HGlo (FRET ratio) to metabolite [1]: does not respond

O=C(O)CCC(=O)O [Succinate, succinic acid]
response of D2HGlo (FRET ratio) to metabolite [1]: does not respond

O=CC[C@@H](O)[C@H](O)[C@H](O)CO [Variant 2-DG, 2-Deoxy-D-glucose]
acute change of Cyto-D2HGlo FRET ratio ([3]; 2-DG 10 mM, approximately 5.5 minutes): unaffected

O=C(O)CC[C@@H](O)C(=O)O [Variant D-2-HG, D-2-hydroxyglutarate]
stability in biological fluids [5]: remains stable

O=C(O)CCC(=O)C(=O)O [α-ketoglutarate, α-ketoglutaric acid]
response of D2HGlo (FRET ratio) to metabolite [1]: does not respond
